Measured values: US6737383B1, “Herbicidal oxadiazolidines” (priority 1999, dated 2004)

Assays:
wheat = assay: Test B pre/postemergence wheat; assay type: in vivo, Triticum aestivum
Summary of the method: (§1)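 Herbicidal effect was estimated by eye on a ten-point control scale after plants spent twelve to sixteen days in a greenhouse following soil or foliar treatment. Foliar sprays targeted plants at one to four leaves; all doses were formulated in a non-phytotoxic solvent with surfactant.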

surinam grass = assay: Test B pre/postemergence surinam grass; assay type: in vivo, Brachiaria decumbens
Summary of the method: as §1

duck salad = assay: Test B flood test duck salad; assay type: in vivo, Heteranthera limosa
Summary of the method: (§2)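 Each value is a visual injury score relative to controls, with 10 meaning complete control and 0 no effect. Evaluation took place twelve to sixteen days after the 2-leaf-stage plants were treated and kept in the greenhouse.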

corn = assay: Test B pre/postemergence corn; assay type: in vivo, Zea mays
Summary of the method: as §1

rice = assay: Test B flood test rice; assay type: in vivo, Oryza sativa
Summary of the method: as §2

pigweed = assay: Test B pre/postemergence pigweed; assay type: in vivo, Amaranthus retroflexus
Summary of the method: as §1

morningglory = assay: Test B pre/postemergence morningglory; assay type: in vivo, Ipomoea hederacea
Summary of the method: as §1

soybean = assay: Test B pre/postemergence soybean; assay type: in vivo, Glycine max
Summary of the method: as §1

purple nutsedge = assay: Test B pre/postemergence purple nutsedge; assay type: in vivo, Cyperus rotundus
Summary of the method: as §1

blackgrass = assay: Test B pre/postemergence blackgrass; assay type: in vivo, Alopecurus myosuroides
Summary of the method: as §1

smallflower flatsedge = assay: Test B flood test smallflower flatsedge; assay type: in vivo, Cyperus difformis
Summary of the method: as §2

sugar beet = assay: Test B pre/postemergence sugar beet; assay type: in vivo, Beta vulgaris
Summary of the method: as §1

bamyardgrass = assay: Test B flood test barnyardgrass; assay type: in vivo, Echinochloa crus-galli
Summary of the method: as §2

bedstraw = assay: Test B pre/postemergence bedstraw; assay type: in vivo, Galium aparine; details: Preemergence; for Bedstraw plant response rating: scale 0 to 10, 0 is no effect, 10 is complete control
Summary of the method: as §1

velvetleaf = assay: Test B pre/postemergence velvetleaf; assay type: in vivo, Abutilon theophrasti
Summary of the method: as §1

cocklebur = assay: Test B pre/postemergence cocklebur; assay type: in vivo, Xanthium strumarium
Summary of the method: as §1

rape = assay: Test B pre/postemergence rape; assay type: in vivo, Brassica napus
Summary of the method: as §1

giant foxtail = assay: Test B pre/postemergence giant foxtail; assay type: in vivo, Setaria faberii
Summary of the method: as §1

crabgrass = assay: Test B pre/postemergence crabgrass; assay type: in vivo, Digitaria sanguinalis
Summary of the method: as §1

wild oat = assay: Test B pre/postemergence wild oat; assay type: in vivo, Avena fatua
Summary of the method: as §1

[1] = Postemergence, Rate 125 g/ha, scale 0 to 10, 0 is no effect, 10 is complete control
[2] = Postemergence, Rate 500 g/ha, scale 0 to 10, 0 is no effect, 10 is complete control
[3] = Preemergence, Rate 62 g/ha, scale of 0 to 10 where 0 is no effect and 10 is complete control
[4] = Preemergence, Rate 125 g/ha, scale 0 to 10, 0 is no effect, 10 is complete control
[5] = Preemergence, Rate 500 g/ha, scale of 0 to 10 where 0 is no effect and 10 is complete control
[6] = Rate 62 g/ha, Postemergence, scale 0 to 10 (0 no effect, 10 complete control)
[7] = Preemergence, Rate 250 g/ha, scale 0 to 10, 0 is no effect, 10 is complete control
[8] = Rate 62 g/ha, flood test species, Pre-emergence, visual evaluation after twelve to sixteen days
[9] = Rate 125 g/ha, under heading Pre-emergence, flood test species, visual evaluation after twelve to sixteen days
[10] = Rate 250 g/ha, Pre-emergence (flood test species), scale 0 to 10, 0 is no effect, 10 is complete control
[11] = Rate 500 g/ha, Pre-emergence section of Table B, 0 to 10 scale (0 no effect, 10 complete control)
[12] = Postemergence, Rate 250 g/ha, scale 0 to 10

## CC(C)N(C(=O)n1oc(=O)n(CCCNC(=O)CCl)c1=O)c1ccccc1 [Compound 493]
wheat; [1]
  Wheat plant response rating: 0
wheat; [2]
  Plant response rating, Wheat: 0
wheat; [3]
  Plant response rating, Wheat: 0
wheat; [4]
  Wheat plant response rating: 0
wheat; [5]
  Wheat plant response rating: 0
wheat; [6]
  Wheat plant response rating: 0
Surinam grass; [1]
  B. signalgrass plant response rating: 0
Surinam grass; Postemergence, Rate 250 g/ha, scale 0 to 10, 0 no effect, 10 complete control
  B. signalgrass plant response rating: 0
Surinam grass; [2]
  Plant response rating, B. signalgrass: 0
Surinam grass; [3]
  Plant response rating, B. signalgrass: 0
Surinam grass; [4]
  B. signalgrass plant response rating: 0
Surinam grass; [7]
  B. signalgrass plant response rating: 0
Surinam grass; Preemergence, Rate 500 g/ha, scale 0 to 10, 0 is no effect, 10 is complete control
  B. signalgrass plant response rating: 0
Surinam grass; [6]
  B. signalgrass plant response rating: 0
Duck salad; [8]
  Plant response rating, Ducksalad (0 to 10 scale, 0 is no effect, 10 is complete control): 0
Duck salad; [9]
  Ducksalad plant response rating (0 to 10 scale, 0 is no effect, 10 is complete control): 0
Duck salad; [10]
  Ducksalad plant response rating: 0
Duck salad; [11]
  Ducksalad plant response rating: 0
corn; [1]
  Corn plant response rating: 0
corn; [12]
  Corn plant response rating: 0
corn; [2]
  Plant response rating, Corn: 0
corn; [3]
  Plant response rating, Corn: 0
corn; [4]
  Corn plant response rating: 0
corn; [5]
  Corn plant response rating: 0
corn; [6]
  Corn plant response rating: 0
rice; [8]
  Plant response rating, Rice (0 to 10 scale, 0 is no effect, 10 is complete control): 0
rice; [9]
  Rice plant response rating (0 to 10 scale, 0 is no effect, 10 is complete control): 0
rice; [10]
  Rice plant response rating: 0
rice; [11]
  Rice plant response rating: 0
pigweed; [1]
  Redroot pigweed plant response rating: 0
pigweed; [2]
  Plant response rating, Redroot pigweed: 0
pigweed; [3]
  Plant response rating, Redroot pigweed: 0
pigweed; [4]
  Redroot pigweed plant response rating: 0
pigweed; [5]
  Redroot pigweed plant response rating: 0
pigweed; [6]
  Redroot pigweed plant response rating: 0
morningglory; [1]
  Morningglory plant response rating: 0
morningglory; [2]
  Plant response rating, Morningglory: 0
morningglory; [3]
  Plant response rating, Morningglory: 0
morningglory; [4]
  Morningglory plant response rating: 0
morningglory; [5]
  Morningglory plant response rating: 0
morningglory; [6]
  Morningglory plant response rating: 0
soybean; [1]
  Soybean plant response rating: 0
soybean; [2]
  Plant response rating, Soybean: 2
soybean; [3]
  Plant response rating, Soybean: 0
soybean; [4]
  Soybean plant response rating: 0
soybean; [5]
  Soybean plant response rating: 0
Purple nutsedge; [1]
  Nutsedge plant response rating: 0
Purple nutsedge; [2]
  Plant response rating, Nutsedge: 0
Purple nutsedge; [4]
  Nutsedge plant response rating: 0
Purple nutsedge; [5]
  Nutsedge plant response rating: 0
Purple nutsedge; [6]
  Nutsedge plant response rating: 0
blackgrass; [1]
  Blackgrass plant response rating: 0
blackgrass; [12]
  Blackgrass plant response rating: 0
blackgrass; [2]
  Plant response rating, Blackgrass: 0
blackgrass; [3]
  Plant response rating, Blackgrass: 0
blackgrass; [4]
  Blackgrass plant response rating: 0
blackgrass; [7]
  Blackgrass plant response rating: 0
blackgrass; [5]
  Blackgrass plant response rating: 0
blackgrass; [6]
  Blackgrass plant response rating: 0
Smallflower flatsedge; [8]
  Plant response rating, S. Flatsedge (0 to 10 scale, 0 is no effect, 10 is complete control): 0
Smallflower flatsedge; [9]
  S. Flatsedge plant response rating (0 to 10 scale, 0 is no effect, 10 is complete control): 0
Smallflower flatsedge; [10]
  S. Flatsedge plant response rating: 0
Smallflower flatsedge; [11]
  S. Flatsedge plant response rating: 0
Sugar beet; [1]
  Sugarbeets plant response rating: 0
Sugar beet; [2]
  Plant response rating, Sugarbeets: 0
Sugar beet; [3]
  Plant response rating, Sugarbeets: 0
Sugar beet; [4]
  Sugarbeets plant response rating: 0
Sugar beet; [5]
  Sugarbeets plant response rating: 0
Sugar beet; [6]
  Sugarbeets plant response rating: 0
bamyardgrass; [8]
  Plant response rating, Barnyardgrass (0 to 10 scale, 0 is no effect, 10 is complete control): 0
bamyardgrass; [9]
  Barnyardgrass plant response rating (0 to 10 scale, 0 is no effect, 10 is complete control): 0
bamyardgrass; [10]
  Barnyardgrass plant response rating: 0
bamyardgrass; [11]
  Barnyardgrass plant response rating: 0
bedstraw; Rate 62 g/ha, scale of 0 to 10 where 0 is no effect and 10 is complete control
  Plant response rating, Bedstraw: 0
bedstraw; Rate 125 g/ha
  Bedstraw plant response rating: 0
bedstraw; Rate 250 g/ha
  Bedstraw plant response rating: 0
bedstraw; Rate 500 g/ha
  Bedstraw plant response rating: 0
velvetleaf; [1]
  Velvetleaf plant response rating: 0
velvetleaf; [2]
  Plant response rating, Velvetleaf: 0
velvetleaf; [3]
  Plant response rating, Velvetleaf: 0
velvetleaf; [4]
  Velvetleaf plant response rating: 0
velvetleaf; [5]
  Velvetleaf plant response rating: 0
velvetleaf; [6]
  Velvetleaf plant response rating: 0
cocklebur; [1]
  Cocklebur plant response rating: 0
cocklebur; [12]
  Cocklebur plant response rating: 0
cocklebur; [2]
  Plant response rating, Cocklebur: 0
cocklebur; [3]
  Plant response rating, Cocklebur: 0
cocklebur; [4]
  Cocklebur plant response rating: 0
cocklebur; [7]
  Cocklebur plant response rating: 0
cocklebur; [5]
  Cocklebur plant response rating: 0
cocklebur; [6]
  Cocklebur plant response rating: 0
rape; [1]
  Rape plant response rating: 0
rape; [2]
  Plant response rating, Rape: 0
rape; [3]
  Plant response rating, Rape: 0
rape; [4]
  Rape plant response rating: 0
rape; [5]
  Rape plant response rating: 0
rape; [6]
  Rape plant response rating: 0
Giant foxtail; [1]
  Giant foxtail plant response rating: 0
Giant foxtail; [2]
  Plant response rating, Giant foxtail: 0
Giant foxtail; [3]
  Plant response rating, Giant foxtail: 3
Giant foxtail; [4]
  Giant foxtail plant response rating: 3
Giant foxtail; [5]
  Giant foxtail plant response rating: 10
Giant foxtail; [6]
  Giant foxtail plant response rating: 0
crabgrass; [1]
  Crabgrass plant response rating: 0
crabgrass; [12]
  Crabgrass plant response rating: 0
crabgrass; [2]
  Plant response rating, Crabgrass: 4
crabgrass; [3]
  Plant response rating, Crabgrass: 0
crabgrass; [4]
  Crabgrass plant response rating: 0
crabgrass; [5]
  Crabgrass plant response rating: 2
crabgrass; [6]
  Crabgrass plant response rating: 0
Wild oat; [1]
  Wild oats plant response rating: 0
Wild oat; [2]
  Plant response rating, Wild oats: 0
Wild oat; [3]
  Plant response rating, Wild oats: 0
Wild oat; [4]
  Wild oats plant response rating: 0
Wild oat; [5]
  Wild oats plant response rating: 0
Wild oat; [6]
  Wild oats plant response rating: 0
